Values of other authors in article PMC9370779, “Traditional Medicinal Uses, Phytochemistry, Biological Properties, and Health Applications of Vitex sp” (Plants, 2022).
“Also recorded” adds a separate entry of the source. Like-named read-outs stand apart in the source and are kept apart here.

What was measured:
T. b rhodesiense = test system: T. b rhodesiense; parameters: method as in PMID 25886869
[1] = test system: African green monkey kidney (Vero) cell lines; parameters: method as in PMID 11842334
cyclooxygenase-1 (COX-1) = test system: cyclooxygenase-1 (COX-1); parameters: method as in PMID 11842334
[2] = parameters: method as in doi:10.1016/j.phytol.2019.11.018
[3] = test system: human colorectal carcinoma (HCT-116) cells; parameters: method as in PMID 26034885
[4] = test system: human fetal lung fibroblast (MRC15) cells; parameters: method as in PMID 26034885
[5] = parameters: method as in PMID 26034885
[6] = test system: LPS-induced NO production; parameters: method as in PMID 31302252
Plasmodium falciparum = test system: Plasmodium falciparum; parameters: method as in PMID 32438132
[7] = parameters: method as in PMID 23150078; conditions: 100 mg/kg dose
[8] = test system: lymphocytic leukemia (P388) cells; parameters: method as in PMID 9332026
[9] = parameters: method as in PMID 27118321; conditions: ABTS stated for 131
[10] = test system: LPS-induced NO production; parameters: method as in doi:10.1177/1934578X19848178; conditions: at lower doses/concentrations
[11] = test system: LPS-stimulated NO production

Q: With “2-(3′,4′-dimethoxyphenyl)-7-hydroxychromen-4-one [Compound 125]” as the compound, how does the trypanocidal activity (T. b rhodesiense) read?
A: All compounds exhibited moderate trypanocidal activity against T. b rhodesiense

Q: With `CO[C@H]1CC2C(C=O)=C(C)CC2O1` (stereo partly drawn) [Compound 6, Tarumal] as the compound, how does the “cytotoxicity against Vero cell lines” value [1] read?
A: no cytotoxicity

Q: And the “COX-1 inhibition (in words)” value (cyclooxygenase-1 (COX-1))?
A: low inhibition

Q: Which “cytotoxicity against Vero cell lines” value [1] does the source give for `COc1cc(C(=O)OC2C[C@@H](O)[C@@H]3C=CO[C@@H](C[C@@H]4O[C@H](CO)[C@@H](O)[C@H](O)[C@H]4O)[C@H]23)ccc1O` (stereo partly drawn) [Compound 7, pedunculariside] here?
A: no cytotoxicity

Q: What about the “COX-1 inhibition (in words)” value (cyclooxygenase-1 (COX-1)) of the same compound?
A: low

Q: What about the “COX-1 inhibition (in words)” value (cyclooxygenase-1 (COX-1); listed as pedunculariside) of the same compound?
A: little inhibitory effect

Q: And the “IC50 value, inhibition of COX-2” value (cyclooxygenase-2 (COX-2))?
A: 150 ± 210 mg/L

Q: And the “inhibition of COX-2 (in words)” value (cyclooxygenase-2 (COX-2))?
A: preferential inhibition of COX-2

Q: Which “percentage scavenging activities on stable free radicals” value [2] does the source give for `COC1CC2C(O)C=C(COC(=O)c3ccc(O)cc3)C2C(OC)O1` (stereo not drawn) [Compound 23, ishindacin A] here?
A: 27.14%

Q: With `CO[C@H]1C[C@@H]2[C@@H](C(COC(=O)c3ccc(O)cc3)=C[C@H]2O)[C@H](OC)O1` [Compound 24, isonishindacin A] as the compound, how does the “percentage scavenging activities on stable free radicals” value [2] read?
A: 25.80%

Q: What does the source list for `C=C1CCC2C(C)(C)CCCC2(C)C1CC(O)C1=CC(=O)OC1O` (stereo not drawn) [Compound 71, 12-epivitexolide A]?
A: cytotoxic activity against HCT-116 cells [3]: cytotoxic activities; also recorded: cytotoxic activity; cytotoxic activity against MRC15 cells [4]: cytotoxic activities; also recorded: cytotoxic activity; antibacterial activity [5]: moderate antibacterial

Q: Which “cytotoxic activity against HCT-116 cells” value [3] does the source give for `C=C1CC(O)C2C(C)(C)CCCC2(C)C1CC(O)C1=CC(=O)OC1O` (stereo not drawn) [Compound 72, vitexolide B] here?
A: cytotoxic activities; also recorded: Exhibited cytotoxic activity on the HCT-116 cell lines

Q: For `C=C1CC(O)C2C(C)(C)CCCC2(C)C1CC(O)C1CC(=O)OC1O` (stereo not drawn) [Compound 73, vitexolide C], which “cytotoxic activity against HCT-116 cells” value [3] is on record?
A: cytotoxic activities; also recorded: Exhibited cytotoxic activity on the HCT-116 cell lines

Q: What does the source list for `C=C1CCC2C(C)(C)CCCC2(C)C1CC(O)C1=CC(=O)OC1` (stereo not drawn) [Compound 74, vitexolide E]?
A: cytotoxic activity against HCT-116 cells [3]: cytotoxic activities; also recorded: cytotoxic activity; cytotoxic activity against MRC15 cells [4]: cytotoxic activities; also recorded: cytotoxic activity; antibacterial activity [5]: moderate antibacterial

Q: Which “cytotoxic activity against HCT-116 cells” value [3] does the source give for `C=C1CC[C@H]2C(C)(C)CCC[C@]2(C)[C@H]1CC(O)/C(C)=C/C(=O)O` (stereo partly drawn) [Compound 75, vitexolin A] here?
A: cytotoxic activities; also recorded: Exhibited cytotoxic activity on the HCT-116 cell lines

Q: For `C=C(CC(=O)O)C(=O)C[C@H]1C(=C)CC[C@H]2C(C)(C)CCC[C@]12C` [Compound 76, vitexolin B], which “cytotoxic activity against HCT-116 cells” value [3] is on record?
A: cytotoxic activities; also recorded: cytotoxic activity

Q: What about the “cytotoxic activity against MRC15 cells” value [4] of the same compound?
A: cytotoxic activities; also recorded: cytotoxic activity

Q: What about the antibacterial activity [5] of the same compound?
A: moderate antibacterial

Q: Which results are given for `CC1=C(CCC2=CCOC2=O)[C@@]2(C)CC[C@H](O[C@@H]3O[C@H](CO)[C@@H](O)[C@H](O)[C@H]3O)C(C)(C)[C@@H]2CC1` [Compound 97, (3S,5R,10S)-3-[(β-D-glucopyranosyl)oxy]-labd-8,13-dien-16,15-olide]?
A: inhibition of LPS-induced NO production (in words) [6]: strong; IC50 ([6]; read-out: inhibition of NO production, IC50 value): 40.1 ± 1.3 µM

Q: With `CC(C)C12C=CC3(OO1)C(CCC1C(C)(C)CCCC13C)C2` (stereo not drawn) [Compound 100, abieta-11(12)-ene-9α,13α-endoperoxide] as the compound, how does the “antimalarial activity (in words)” value (Plasmodium falciparum) read?
A: exhibited antimalarial activity

Q: For `CC(C)[C@@]12C=C[C@@]3(OO1)[C@@H](CCC1C(C)(C)C[C@H](OC(=O)CC(=O)O)C[C@@]13C)C2` (stereo partly drawn) [Compound 100a], which “antimalarial activity (in words)” value (Plasmodium falciparum) is on record?
A: exhibited antimalarial activity

Q: With `CC(C)C12C=CC3(OO1)C(CCC1C(C)(C)CCCC13C)C2` (stereo not drawn) [Compound 101, abieta-11(12)-ene-9β,13β-endoperoxide] as the compound, how does the “times more active than compound 100” value (Plasmodium falciparum; Plasmodium falciparum) read?
A: 54

Q: Which “antimalarial activity (in words)” value (Plasmodium falciparum) does the source give for `CC(C)[C@]12C=C[C@]3(OO1)[C@@H](CCC1C(C)(C)C[C@H](OC(=O)CC(=O)O)C[C@@]13C)C2` (stereo partly drawn) [Compound 101a] here?
A: exhibited antimalarial activity

Q: Which “antimalarial activity (in words)” value (Plasmodium falciparum) does the source give for `C=CC1(C)CCC2C(C)(CCC3C(C)(C)CCCC32C)O1` (stereo not drawn) [Compound 102, 9αH-manoyl oxide] here?
A: exhibited antimalarial activity

Q: For `CC1(C)CC[C@@H]([C@@](O)(CO)C2CC[C@@]3(O)C4=CC(=O)[C@@H]5C[C@@H](O)[C@@H](O)C[C@]5(C)C4CC[C@]23C)O1` (stereo partly drawn) [Compound 111, 21-hydroxyshidasterone], which “anti-inflammatory activity in rat paw oedema development assay” value [7] is on record?
A: showed anti-inflammatory activity; also recorded: Exhibited anti-inflammatory activity in rat paw oedema development assay at 100 mg/kg dose

Q: Which “anti-inflammatory activity in rat paw oedema development assay” value [7] does the source give for `CC1(C)CC[C@@H]([C@@H](CO)C2CC[C@@]3(O)C4=CC(=O)[C@@H]5C[C@@H](O)[C@@H](O)C[C@]5(C)C4CC[C@]23C)O1` (stereo partly drawn) [Compound 112, 11β-hydroxy-20-deoxyshidasterone] here?
A: showed anti-inflammatory activity; also recorded: Exhibited anti-inflammatory activity in rat paw oedema development assay at 100 mg/kg dose

Q: Which “cytotoxicity against P388 cells, IC50 values” (shortened to “cytotoxicity … IC50 values”) [8] does the source give for `COC1C(COC(=O)C=Cc2ccc(O)c(O)c2)OC(c2c(O)cc3oc(-c4ccc(O)c(O)c4)cc(=O)c3c2O)C(O)C1O` (stereo not drawn) [Compound 115, luteolin 6-C-(4″-methyl-6″-O-trans-caffeoylglucoside)] here?
A: 7.6 mg/L

Q: For `O=C(C=Cc1ccc(O)c(O)c1)OCC1OC(c2c(O)cc3oc(-c4ccc(O)c(O)c4)cc(=O)c3c2O)C(O)C(O)C1O` (stereo not drawn) [Compound 116, luteolin 6-C-(6″-O-trans-caffeoylglucoside)], which “cytotoxicity … IC50 values” [8] is on record?
A: 14 mg/L

Q: With `O=C(C=Cc1ccc(O)c(O)c1)OC1C(c2c(O)cc3oc(-c4ccc(O)c(O)c4)cc(=O)c3c2O)OC(CO)C(O)C1O` (stereo not drawn) [Compound 117, luteolin 6-C-(2″-O-trans-caffeoylglucoside)] as the compound, how does the “cytotoxicity … IC50 values” [8] read?
A: 56 mg/L

Q: With `COc1cc(-c2oc3cc(O)cc(O)c3c(=O)c2OC)ccc1O` [Compound 122, 2-(5′-methoxyphenyl)-4′,5,7-trihydroxy-3-methoxychromen-4-one] as the compound, how does the trypanocidal activity (T. b rhodesiense) read?
A: All compounds exhibited moderate trypanocidal activity against T. b rhodesiense

Q: For `COc1cc(O)c2c(=O)c(OC)c(-c3ccc(O)cc3)oc2c1` [Compound 123, 2-(4′-hydroxyphenyl)-5-hydroxy-3,7-dimethoxy-chromen-4-one], which trypanocidal activity (T. b rhodesiense) is on record?
A: All compounds exhibited moderate trypanocidal activity against T. b rhodesiense

Q: For `O=c1c(O)c(-c2ccc(O)cc2)oc2cc(O)cc(O)c12` [Compound 124, 2-(4-hydroxyphenyl)-3,5,7-trihydroxychromen-4-one], which trypanocidal activity (T. b rhodesiense) is on record?
A: All compounds exhibited moderate trypanocidal activity against T. b rhodesiense

Q: With `COc1cc(-c2c(O)c(C(=O)O)cc3cc(OC)c(O)cc23)ccc1O` [Compound 131, vitexnegheteroin G] as the compound, how does the antioxidant activity [9] read?
A: antioxidant activity; also recorded: Exhibited antioxidant activities using ABTS scavenging activities

Q: With `COc1cc2c(cc1O)C(c1ccc(OC)c(OC)c1)C(CO)C(C=O)=C2` (stereo not drawn) [Compound 137, 6-hydroxy-4-(3,4-dimethoxyphenyl)-3-hydroxymethyl-7-methoxy-3,4-dihydro-2-naphthaldehyde] as the compound, how does the “inhibitory effects on NO generation” value [10] read?
A: minor effects of inhibitory

Q: For `COc1ccc([C@H]2c3c(ccc(O)c3OC)C=C(C=O)[C@@H]2CO)cc1OC` [Compound 138, 6-hydroxy-4-(3,4-dimethoxyphenyl)-3-hydroxymethyl-5-methoxy-3,4-dihydro-2-napthaldehyde], which “inhibitory effects on NO generation” value [10] is on record?
A: minor effects of inhibitory

Q: Which “inhibitory activity on LPS-stimulated NO production” value [11] does the source give for `CO[C@H]1O[C@H](COC(=O)c2ccc(O)cc2)[C@@H](O)[C@H](O)[C@H]1O` [Compound 155, methyl (6-O-4-hydroxybenzoyl)-α-D-glucopyranoside] here?
A: Exhibited antioxidant and NO inhibitory activities.

Q: What about the “antioxidant activity via ABTS radical scavenging assay” value of the same compound?
A: Exhibited antioxidant and NO inhibitory activities.

Q: What does the source list for `O=C(OC[C@H]1O[C@@H](Oc2ccc(O)cc2)[C@H](O)[C@@H](O)[C@@H]1O)c1ccc(O)cc1` [Compound 156, breynioside A]?
A: inhibitory activity on LPS-stimulated NO production [11]: Exhibited antioxidant and NO inhibitory activities.; antioxidant activity via ABTS radical scavenging assay: Exhibited antioxidant and NO inhibitory activities.

Q: Which “inhibitory activity on LPS-stimulated NO production” value [11] does the source give for `O=C(OC[C@H]1O[C@@H](OC(=O)c2ccc(O)cc2)[C@H](O)[C@@H](O)[C@@H]1O)c1ccc(O)cc1` [Compound 157, 1,6-di-O-4-hydroxybenzoyl-β-D-glucopyranoside] here?
A: Exhibited antioxidant and NO inhibitory activities.

Q: What about the “antioxidant activity via ABTS radical scavenging assay” value of the same compound?
A: Exhibited antioxidant and NO inhibitory activities.

Q: Which results are given for `COc1cc(O[C@@H]2O[C@H](COC(=O)c3ccc(O)cc3)[C@@H](O)[C@H](O)[C@H]2O)ccc1O` [Compound 158, dunnianoside D]?
A: inhibitory activity on LPS-stimulated NO production [11]: Exhibited antioxidant and NO inhibitory activities.; antioxidant activity via ABTS radical scavenging assay: Exhibited antioxidant and NO inhibitory activities.
